Consider one substance from US9408891B2, “Methods of using gelsolin to treat or prevent bacterial sepsis” (priority 2003, dated 2016).

“Also recorded” adds a separate entry of the source.

For data set [1], the target named is T1, PBP10 (PIP2-binding site of gelsolin) (Homo sapiens, UniProt P06396).
T1 construct: made in house; host or cells: solid phase peptide synthesis
Description: Rhodamine-B fluorescence change of gelsolin peptide PBP10 after adding lipids. Conditions: 2 μM peptide, buffer A pH 7.0, 15 min. How it is done:
(§1) Therefore, to determine changes of gelsolin OD at 280 nm, different amounts of LPS, LPA and PS were added to recombinant human gelsolin (rhGLS) solutions and OD emission spectra were recorded using spectrophotometer Genesys 6 (Thermo-Spectronic, USA).
Interaction of LPS and gelsolin was examined using rhodamine B- and pyrene-labeled SEQ ID No:1 (QRLFQVKGRR). The effect of LPS on gelsolin was determined in terms of the rhodamine-B fluorescent changes of PBP10 peptide in the presence of different lipids (FIG. 1C); and the fluorescence emission spectra of pyrene-labeled SEQ ID No:1 (2 μM) in the presence of LPS from Escherichia coli (1.2 μM), PIP2 (0.82 μM) and LPA (0.82 μM) (FIG. 1D) The results using the pyrene-derivatized gelsolin peptide confirmed the LPS induced clustering of the peptide with resulting excimer fluorescence of the pyrene group, which was evident as a large increase in fluorescence emission at 480 nm.
The tested gelsolin concentration was 50 nM; LTA ranged from 0-50 μM; Pyrene-F-actin was 0.3 μM. Recording changes in fluorescently-labeled (rhodamine B-labeled) gelsolin peptide PBP10 (10 μM), indicates a specific interaction between gelsolin and LTA.

For data set [2], the system named is human aortic endothelial cells (HAEC). Put plainly: LPS-induced actin cytoskeleton disassembly, phalloidin staining, endothelial cells. The data set is classed as cell-based. Conditions: LPS 10 μg/ml, 10 min. An excerpt:
In light of the findings in the previous Examples, and using the materials prepared in above, the effect of the gelsolin binding by LPS was studied to determine the effect on cellular responses in vitro. Cell cultures of human aortic endothelial cells (HAEC) and rat primary astrocytes were used to evaluate the effect of LPS on actin. Both of these cell types have mCD14 (membrane bound C14) and TLR LPS receptors (Faure, et al., J. Biol. Chem. 275:11058-11063 (2000); Bsibsi, et al., J. Neuropathol. Exp. Neurol. 61:1013-1021 (2002); Bowman, et al., Glia 43:281-291 (2003)).
HAECs (primary human aortic endothelial cells) (ATCC, Rockville, Md. or Clonetics, San Diego, Calif.), will grow to confluence through passages 5-9 in endothelial cell growth medium supplemented with 2% fetal bovine serum, 10 μg/liter human recombinant epidermal growth factor, 1 mg/liter hydrocortisone, 50 μg/ml gentamicin, 50 ng/ml amphotericin-B, in a 37° C. humidified atmosphere of 95% air:5% C02.
HAECs and astrocytes cultures were incubated for 10 minutes in medium containing 10 μg/ml LPS alone, or LPS that had been pre-incubated with 0.16 mg/ml of human gelsolin. […] Location of transcription factor nuclear factor-kappaB (NF-κB) was observed using a monoclonal antibody to NF-κB (Molecular Probes), and cell nuclei were detected by counter-staining with 4′, 6-diamidino-2-phenylindole dihydrochloride (DAPI) (Sigma).

The target in data set [3] is T2, recombinant human gelsolin (rhGLS) (Homo sapiens, UniProt P06396).
T2 construct: purchased Biogen IDEC, Inc., Cambridge, Mass; host or cells: E. coli
T2 sequence (P06396 28-782): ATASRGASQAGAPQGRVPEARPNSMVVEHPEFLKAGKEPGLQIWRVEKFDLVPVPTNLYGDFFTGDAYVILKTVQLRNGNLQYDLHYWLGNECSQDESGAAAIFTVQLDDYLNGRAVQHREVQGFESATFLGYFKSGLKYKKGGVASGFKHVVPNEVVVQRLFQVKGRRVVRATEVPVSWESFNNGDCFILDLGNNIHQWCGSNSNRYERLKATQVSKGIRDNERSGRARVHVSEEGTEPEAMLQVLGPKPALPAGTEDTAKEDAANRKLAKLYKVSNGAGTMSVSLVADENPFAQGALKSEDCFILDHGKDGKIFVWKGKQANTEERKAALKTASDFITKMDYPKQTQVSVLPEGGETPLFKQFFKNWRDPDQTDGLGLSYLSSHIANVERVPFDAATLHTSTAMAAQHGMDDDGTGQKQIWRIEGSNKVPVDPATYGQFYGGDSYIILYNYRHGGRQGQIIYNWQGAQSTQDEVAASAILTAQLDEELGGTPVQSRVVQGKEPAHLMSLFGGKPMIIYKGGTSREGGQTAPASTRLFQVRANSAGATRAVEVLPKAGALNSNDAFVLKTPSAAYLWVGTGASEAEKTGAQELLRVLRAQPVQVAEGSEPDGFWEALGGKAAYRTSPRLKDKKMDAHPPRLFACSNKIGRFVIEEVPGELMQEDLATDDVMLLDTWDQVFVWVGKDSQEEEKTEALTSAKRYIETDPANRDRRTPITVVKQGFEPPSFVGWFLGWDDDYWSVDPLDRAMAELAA
Put plainly: Actin filament severing activity of purified gelsolin (pyrene F-actin depolymerization). Type of data set: biochemical. The method, then:
To determine gelsolin's severing activity, rates of fluorescence decrease were evaluated during depolymerization. Monomeric G-actin was prepared from an acetone powder of rabbit skeletal muscle according to previously published methods (Spudich et al., J. Biol. Chem […]). The non-polymerizing solution contained 2 mM TRIS, 0.2 mM CaCl2, 0.5 mM ATP (adenosine triphosphate), 0.2 mM DTT (dithiothreitol) pH 7.4. Actin was polymerized by adding 150 mM KCl and 2 mM MgCl2 to the G-actin solutions and incubating for 1 hour at room temperature.
For F-actin severing assays, in general, a small volume (typically 5 μl) of the gelsolin composition is added to a similar volume of pyrene-labeled F-actin at a concentration adjusted to provide an actin:gelsolin ratio of approximately 10:1 (typically 1 μM gelsolin and 10 μM actin). This mixture is the diluted to 0.5 μM in a larger volume of F-actin buffer, and the filament severing efficiency is calculated from the initial slope of the fluorescence change. This reflects the rate of depolymerization that, in turn, is proportional to the number of cuts made by gelsolin. The LPS/gelsolin reaction can be done under any ionic condition, and the addition to F-actin requires the presence of […] Ca^2+ to activate the gelsolin. […] The actin nucleation reaction is similar except that in the latter case, the gelsolin/LPS mixture is added to a more dilute solution of G-actin (typically, 1 or 2 μM) in low ionic strength buffer followed immediately by addition of 150 mM KCI and 2 mM MgCl2 to initiate polymerization.
As shown, recombinant human gelsolin (rhGLS) (FIG. 4A) and blood serum (FIG. 4B) severing activity was measured in 0.4 μM pyrene-labeled F-actin samples (polymerized with 50% pyrene-labeled G-actin), after adding gelsolin (16 nM)/serum (2.5 μl), or their combination with one of the following: LPS (from different species), PIP2 (phosphatidyl-inositol-4,5-bisphosphate), LPA (lysophosphatidic acid), lipid A (the LPS derivative lacking polysaccharide) or PS (phosphatidylserine). The fluorescence intensity of F-pyrene actin was then monitored for 10 minutes, and the severing activity was calculated based on decreasing fluorescence. Severing activity was determined from a decrease in rate of fluorescence during depolymerization, and the depolymerization rate was calculated from the slope of the early decrease in fluorescence.

Data set [4] addresses T2, recombinant human gelsolin (rhGLS). Put plainly: Change of gelsolin OD at 280 nm after adding lipids. The data set is classed as binding. Conditions: OD 280 nm. How it is done: as §1
A short description of data set [5]: Neutron scattering of LPS with gelsolin peptide. The data set is classed as physicochemical. Conditions: preliminary neutron scattering, cylindrical structure. An excerpt:
The molecular structure of LPS and its complexes with proteins can be measured at nm resolution by X-ray and neutron scattering, as well as by electron and atomic force microscopy.
At present, the calculated diameter (36 nm) is greater than that which has been previously reported for pure LPS micelles, and the difference in size may reflect another structural feature. In additional experiments with more variations in gelsolin/LPS or peptide, LPS ratios will reveal if there are significant changes in LPS particle structure when these peptides bind LPS.

In the case of lipopolysaccharide [LPS], in data set [1], the “fluorescence quenching / change of rhodamine-B peptide” value is listed as “induced identical concentration-dependent fluorescence quenching”. The “effect of LPS alone on actin cytoskeleton” value in data set [2] is given as “rapidly induced the disassembly of the actin cytoskeleton; also recorded: disassembly of the actin cytoskeleton was readily induced; also recorded: rapidly induced disassembly of the actin cytoskeleton”. Further, the “inhibition of severing activity of gelsolin” value in data set [3] (0.02 μM LPS (100 ng/ml), 0.016 μM gelsolin) came to 50%. Also, the “inhibition of severing capability of gelsolin” value in data set [3] (0.1 μM LPS, 0.016 μM gelsolin) is given as 90%. In addition, the “inhibition of severing activity of purified human gelsolin” value in data set [3] (LPS concentration not stated at this place) is listed as 50%. In data set [3] (molar basis comparison), the “inhibitory effect on severing activity of purified gelsolin” value is listed as “more potent inhibitor than either LPA or P1P2; also recorded: more potent inhibitor; also recorded: more potent inhibitor of gelsolin actin severing capability than either LPA or PIP2”. In addition, the “maximal decrease in UV absorbance of intact gelsolin” value in data set [4] was roughly 35%. For the same substance, in data set [5], the calculated diameter is listed as 36 nm.
